Results on 2 sequences are retold here after EP0770681A2, “T cell epitopes of the major allergens from ambrosia artemisiifolia” (IMMULOGIC PHARMACEUTICAL CORPORATION, priority 1992, dated 1993).

No end group written: not given here.

The test system of data set [1] is basophils present in heparinized whole blood. As to the kind of experiment: histamine release assay. Type of data set: cell-based, human. As to conditions: blood of ragweed-allergic patient #1273, similar in seven other patients; Amb a I.1 from 10 µg/ml in 10-fold dilutions, peptides 50 µg/ml to 0.08 µg/ml. Here is the method:
The histamine release assay used for these studies is based on the detection of an acylated derivative of histamine using a specific monoclonal antibody (Morel, A.M. and Delaage, M.A. (1988) J. Allergy Clin. Immunol. 82:646-654). The assay was performed in two steps: 1) the release of histamine from basophils present in heparinized whole blood in the presence of different concentrations of protein or peptide; and 2) the assay of histamine present in the supernatants of the release reactions following cell removal by centrifugation. The reagents for this second step are available commercially as a competitive radioimmunoassay from AMAC Inc. (Westbrook, ME).
Heparinized whole blood was drawn from ragweed allergic patients. […] The tubes were then centrifuged in a microfuge at 1500 RPM for 3 minutes and the supernatants were carefully removed and analyzed or stored at -20°C for later analysis. […]
For the competition radioimmunoassay, a 50 µl aliquot of each release supernatant was mixed with 150 µl of histamine release buffer (supplied with the kit from AMAC). […] The solutions were aspirated from the tubes and the radioactivity bound to the tube was measured on a gamma counter (Cobra 5005, Beckman, Inc.) for two minutes per tube. […]
Six or more 10-fold dilutions of Amb a I.1 starting at 10 µg/ml (approximately 0.66 µM) were analyzed. […]

In data set [2] the test system is Amb a I.1 stimulated T cell line plus APC. As to the kind of experiment: assessment of peptide toxicity in Amb a I.1 primed secondary T cell culture. The class given is cell-based, human. Here is the method:
This could reflect a potential toxic effect of the peptides in the T cell assays. To investigate this possibility, an assay was conducted to determine the ability of the peptides to inhibit T cell proliferation. Inhibition was defined as proliferation of a T cell line in response to the peptide which was less than half the proliferation of media control T cell lines plus autologous EBV transformed antigen presenting cells. […]

Data set [3] is described as follows: peptide solubility. The class given is physicochemical. The conditions noted are these: compared among Amb 2-18.1, Amb2-19.1, Amb2-20.1 and Amb2-21.1. The text has this: Peptides Amb 2-18.1 (SEQ ID NO:126), Amb2-19.1 (SEQ ID NO:127), Amb2-20.1 (SEQ ID NO:128) and Amb2-21.1 (SEQ ID NO:129) correspond to different lengths of the original peptide which were synthesized (including the serine substitution at position 212) and analyzed to determine solubility. […] Thus, substitutions and/or amino acid additions to this peptide were made in order to further increase the solubility while maintaining T cell reactivity. For example, in peptides Amb2-22.1 (SEQ ID NO:130) and Amb2-23.1 (SEQ ID NO:131) isoleucine at position 201 was substituted with glutamic acid (Amb2-22.1) or lysine (Amb2-23.1) to lower the pI of the resulting peptide and avoid precipitation of the peptide at physiological pH. Similarly, the following peptides were also synthesized with various substitutions or additions designed to decrease the pI and increase the hydrophilicity of the peptide, each is shown in Figure 25: Amb2-26.1 (SEQ ID NO:132); Amb2-28.1 (SEQ ID NO:133); Amb2-30.1 (SEQ ID NO:134); Amb2-32.1 (SEQ ID NO:135); Amb2-33.1 (SEQ ID NO:136); Amb2-34.1 (SEQ ID NO:137); Amb2-35.1 (SEQ ID NO:138); Amb2-36.1 (SEQ ID NO:139); Amb2-37.1 (SEQ ID NO:140); and Amb2-38.1 (SEQ ID NO:141).

Turning to KGTVGGKDGDIYTVTSELDDDVAN [AMB 1-2.1], in data set [1], the histamine release entry is recorded as “no discernible histamine release”. For the same sequence, in data set [2] (patients with toxicity (proliferation less than half of media control) / patients tested), the “# patients” value is on record as 3/46. Besides, the “(%)patients” value in data set [2] (percent of patients with toxicity (proliferation less than half of media control)) is listed as 7%. In data set [2] (toxicity at 5 µg/ml and 50 µg/ml peptide, fraction of patients with toxicity), the both is reported as 0. For the same sequence, in data set [2] (toxicity only at 5 µg/ml peptide, fraction of patients with toxicity), the low dose only is 2/3. For the same sequence, the high dose only in data set [2] (toxicity only at 50 µg/ml peptide, fraction of patients with toxicity) is on record as 1/3.
For the sequence SISGSSQIWIDHSSLSKS [AMB2-19.1], the solubility entry in data set [3] was “most soluble”.
